“Also recorded” adds a separate entry of the source.
Tests used:
[1] = tested on: imiquimod (IMQ)-induced mouse psoriasis model; assay: Imiquimod (IMQ)-induced mouse psoriasis model: GC treatment, withdrawal, re-induced recurrence; type: in vivo; settings: imiquimod replaced by mannan for inducing recurrence
[2] = tested on: imiquimod (IMQ)-induced mouse psoriasis model; assay: as above; type: in vivo; settings: for proportion of γδT17 (IL-17-secreting) cells in lymph nodes: after drug administration was stopped (2 weeks); for recurrence of psoriasis: psoriasis re-induced with IMQ after withdrawal
Text: (§1) In this example, an animal model to simulate clinical GC treatment for psoriasis was established (FIG. 2a). An imiquimod (IMQ)-induced mouse psoriasis model was utilized to simulate the whole clinical process of topical glucocorticoid treatment in patients with psoriasis: administering of drug—stop administering—recurrence of disease.
(§2) All mice were smeared with IMQ for three weeks. Among them, from the 6th day, GC or petrolatum (Vas) was applied to the skin of the mice, and all treatments were stopped on the 21st day. Mice entered a 2-week drug withdrawal period, after which IMQ was applied again for 7 consecutive days to induce psoriasis recurrence.
In order to simulate the clinical withdrawal period, all mice in the experimental group and the control group were rested for 2 weeks without treatment.
In this example, IMQ was applied to the mice in the experimental group and the control group again to simulate the recurrence of psoriasis after clinical withdrawal.

[3] = tested on: wild-type mice (WT), CCR6−/−, and CCR2−/− mice; assay: GC treatment and IMQ re-challenge in WT, CCR6−/− and CCR2−/− mice; type: in vivo, mouse
Text: as §1, §2
Cytokine receptors CCR6 and CCR2 are known to mediate the migration of γδT17 cells in the occurrence of skin inflammation. In this example, the above-mentioned mechanism was studied in wild-type mice (WT), CCR6^−/−, and CCR2^−/− mice.

[4] = tested on: patients with psoriasis vulgaris; assay: Psoriasis vulgaris patients, topical GC for 2 weeks, then stopped until relapse (flow cytometry, RNA-seq); type: in vivo, human
Description: In this example, patients with psoriasis vulgaris were recruited and glucocorticoids (GC) were topically (externally) administered for 2 weeks of treatment. Thereafter, the administration were stopped until the disease relapsed, and further research on the mechanism of psoriasis recurrence was carried out.
Transcriptome sequencing (RNA-seq) was performed on the skin lesions of these patients before GC treatment, after GC treatment, and after disease recurrence.
In this example, in psoriasis patients receiving GC treatment, the changes in the proportion of CD3+ T cells and T17 cells in the skin and peripheral blood before treatment, after treatment and during recurrence were detected.

[5] = 2 weeks after withdrawal, vs control group
[6] = TCRd−/− mice, IMQ re-challenge, GC vs Vas
[7] = CCR6−/− mice, after GC treatment
[8] = CCR6−/− mice, re-challenge with IMQ
[9] = after treatment and during recurrence
[10] = before, after treatment and during recurrence

C[C@@H]1C[C@H]2[C@@H]3C[C@H](F)C4=CC(=O)C(Cl)=C[C@]4(C)[C@@]3(F)[C@@H](O)C[C@]2(C)[C@@]1(O)C(=O)CO [halometasone]
rapid disease recurrence [1]: no longer had rapid disease recurrence
proportions of γδT, Vγ4, Vγ4Vδ4 cells in draining and distant lymph nodes ([2]; 2 weeks after withdrawal): remained unchanged or slightly increased
neutrophils infiltrated in the skin ([2]; 2 weeks after withdrawal, vs Vas control group): more neutrophils were infiltrated
proportion of γδT17 in the skin [2, 5]: also lower
proportions of CD3, γδT, Vγ4Vδ4 in the skin [2, 5]: still lower
levels of IL-17 secreted by CD3 and γδT cells in the skin ([2]; IMQ re-challenge, GC vs Vas): not significantly different
proportions of CD3 and γδT cells in the skin ([2]; IMQ re-challenge, GC vs Vas): not significantly different
proportions of IL-17 secreted by γδT, Vγ4, Vγ4Vδ4 cells in distant lymph nodes ([2]; IMQ re-challenge, GC vs Vas): significantly lower
proportions of Vγ4T17 and Vγ4Vδ4T17 cells in the skin ([2]; IMQ re-challenge, GC vs Vas): slightly decreased
γδT17 in skin draining lymph nodes ([2]; IMQ re-challenge, GC vs Vas): no difference
infiltrated neutrophils in the skin ([2]; IMQ re-challenge, vs Vas control group): exceeded
epidermal thickening fold ([2]; IMQ re-challenge, vs Vas group): also higher
neutrophils infiltrated in the skin ([2]; TCRd−/− mice, 2 weeks after withdrawal, GC vs Vas): no difference
ear / epidermal thickening [2, 6]: no difference
infiltrated neutrophils in the skin [2, 6]: opposite results
neutrophil infiltration in the skin ([2]; TCRd−/− mice, after treatment, experimental vs control group): no statistical difference
proportion of γδT17 cells in lymph nodes after stimulation ([2]; after drug administration was stopped): still significantly increased
proportion of γδT17 (IL-17-secreting) cells in lymph nodes [2]: still significantly increased
proportion of γδT17 (IL-17-secreting) cells in lymph nodes ([2]; listed as GC): significantly increased
IL-17 secretion by Vγ4 cells and Vγ4Vδ4 cells in draining lymph nodes ([2]; after treatment): secreted more IL-17
dermal γδT cells, especially Vγ4Vδ4 cells, in the skin ([2]; after treatment): significantly reduced
proportion of CD3+ T cells in the skin ([2]; after treatment): significantly reduced
proportion of IL-17 secretion of γδT, Vγ4, Vγ4Vδ4 cells in distal lymph nodes ([2]; after treatment): also higher
proportion of Vγ4 cells in skin-draining lymph nodes ([2]; after treatment): increased
proportion of γδT17 cells in draining and distal lymph nodes ([2]; after treatment): significantly increased
proportion of γδT cells in skin-draining lymph nodes ([2]; after treatment): decreased
proportions of IL1R expression in γδT, Vγ4, Vγ4Vδ4 cells in the skin ([2]; after treatment): all increased
proportions of γδT, Vγ4, Vγ4Vδ4 T cells in distal lymph nodes ([2]; after treatment): higher
neutrophil infiltration in the skin ([2]; after treatment, immunofluorescence and flow staining): reduced
proportion of IL-17 secretion of γδT, Vγ4, Vγ4Vδ4 cells in distal lymph nodes ([2]; after treatment, listed as GC): all increased
proportion of γδT17 cells in draining and distal lymph nodes ([2]; after treatment, listed as GC): increased in draining and distant lymph nodes
proportions of CD3, γδ, Vγ4, Vγ4Vδ4 that secreted IL-17 (γδT17) in the skin ([2]; after treatment, listed as GC): reduced; also recorded: decreased in the skin
proportions of γδT, Vγ4, Vγ4Vδ4 T cells in distal lymph nodes ([2]; after treatment, listed as GC): all increased
ear thickening speed ([2]; after using IMQ again for 3 days, vs control group): faster
ear thickness ([2]; day 21, vs control group (Vas)): significantly thinner
proportion of γδT17 cells in draining and distal lymph nodes ([2]; psoriasis re-induced with IMQ): significant decrease
recurrence of psoriasis [2]: relapsed rapidly
recurrence of psoriasis ([2]; listed as GC): more severe disease recurrence
proportion of Vγ4 and Vγ4Vδ4 T cells in the skin ([2]; psoriasis re-induced with IMQ, GC group vs Vas): higher
proportions of γδT, Vγ4, Vγ4Vδ4 cells in lymph nodes ([2]; psoriasis re-induced with IMQ, GC group vs Vas, listed as GC): varied slightly or did not change; also recorded: mild or no change
proportion of γδT17 cells in draining and distal lymph nodes ([2]; psoriasis re-induced with IMQ, listed as GC): indistinguishable or even lower
symptoms of skin psoriasis ([2]; topical treatment of ear skin inflammation): significantly relieved
proportion of γδT17 cells in lymph nodes ([3]; CCR6 KO mice, recurrence after GC treatment): did not show a decrease
redistribution of γδT17 cells in vivo ([3]; CCR6 knockout mice): did not affect
ear thickness vs corresponding control [3, 7]: no significant difference
increased levels of IL-17 secreted by γδT, Vγ4, Vγ4Vδ4 cells in draining and distant sites [3, 7]: not observed
proportion of γδT cells in lymph nodes ([3]; CCR6−/− mice, after treatment): did not show an increase
disease recurrence [3, 8]: significantly suppressed
levels of IL-17 secreted by dermal γδT, Vγ4, Vγ4Vδ4 cells vs corresponding control group [3, 8]: significantly lower
proportions of γδT17, Vγ4T17, Vγ4Vδ4T17 cells in draining and distant lymph nodes (decrease) [3, 8]: not
disease recurrence ([3]; WT and CCR2 mice, re-challenge with IMQ): faster disease recurrence
ear thickness vs corresponding controls ([3]; WT and CCR2−/− mice, after GC treatment): significantly lower
levels of IL-17 secreted by CD3, γδT, Vγ4, Vγ4Vδ4 cells in the skin vs corresponding control group ([3]; WT and CCR2−/− mice, re-challenge with IMQ): no significant difference
proportions of γδT17, Vγ4T17, Vγ4Vδ4T17 cells in draining and distant lymph nodes ([3]; WT mice, re-challenge with IMQ): decreased
ear thickness ([3]; WT, CCR6−/− and CCR2−/− mice (three strains), after GC treatment): reduced
levels of IL-17 secreted by CD3, γδT, Vγ4, Vγ4Vδ4 cells in the skin ([3]; three strains of mice, after GC treatment): all reduced
expression of chemokines CCL20, CCL5, CCL2, CXCL10 in skin lesions (RNA-seq) [4, 9]: decreased after treatment and increased during recurrence
expression of psoriasis-related genes (IL-17, IL-23) in skin lesions [4, 9]: decreased after treatment, but increased during recurrence
expression of psoriasis-related genes (IL-17, IL-23) in skin lesions ([4]; after treatment and during recurrence, listed as GC): down-regulated
proportion of IL-17-producing T cells (T17 cells) in skin lesions [4, 10]: decreased after treatment and increased during recurrence
proportion of IL-17-producing cells (T17 cells) in peripheral blood [4, 10]: increased after treatment and decreased during recurrence
proportion of IL-17-producing T cells (T17 cells) in skin lesions ([4]; before, after treatment and during recurrence, listed as GC): decreased
control of psoriasis ([4]; topical treatment): quickly and effectively control psoriasis

CCCCCCCCc1ccc(CCC(N)(CO)CO)cc1 [FTY720]
migration of γδT17 cells from the draining lymph nodes ([2]; GC group, recurrence): prevented
rapid recurrence of psoriasis ([2]; mice in the GC group given FTY720): did not appear rapid recurrence

— patent US20220401459A1, “NEW APPLICATION OF CHEMOKINE RECEPTOR CCR6 INHIBITOR IN PREVENTING RECURRENCE OF PSORIASIS” (RUIJIN HOSPITAL, SHANGHAI JIAOTONG UNIVERSITY SCHOOL OF …, priority 2019, published 2022)
